The values that follow are results of earlier work, collected in patent publication US7279279B2, “Compositions and methods for determining anti-viral drug susceptibility and resistance and anti-viral drug screening” (Monogram Biosciences, Inc., priority 1996, dated 2007).

The test system of the data set is HIV. To be noted: background statement on drug treatment of HIV; no test conditions given.

For the compound `Cc1cn([C@H]2C[C@H](N=[N+]=[N-])[C@@H](CO)O2)c(=O)[nH]c1=O` [AZT, zidovudine], the reduce virus replication result was “about 90%”.
